Experimental data reported in article PMC8321240, “Cell-Type-Specific High Throughput Toxicity Testing in Human Midbrain Organoids” (Frontiers in Molecular Neuroscience, 2021).
Entries after “also recorded” stand apart in the source; their conditions may differ.

Key:
[1] = tested on: automated midbrain organoids (AMOs); test: Viability of 3D AMOs (CellTiter-Glo 3D) in the 2D vs 3D comparison; assay type: cell-based, human; settings: for IC50: Homo sapiens, 48 h exposure from day 50
Procedure: We cultured AMOs for 47 days in our automated system as described above. On day 47, we exchanged the organoid medium to a minimal tox medium (TM, consisting of DMEM/F-12 with 1% N2 supplement and 1% penicillin/streptomycin/glutamine) to reduce possible interference from antioxidants in the B27 media supplement. The next day, we treated the AMOs with the compounds from the library at a concentration of 100 μM in TM with some deviations due to solubility (see Supplementary Table 1 for a complete list of compounds including their final concentrations in the screen). DMSO control samples contained 0.5% (v/v) DMSO, which is equivalent to the amount of solvent in the samples that received compound treatment. After 48 h of incubation with the compounds, we either directly processed the organoids for the 48-h time point or renewed the compounds in TM once to achieve 96 h of incubation. Following either 48 or 96 h of compound incubation, we used the CellTiter-Glo 3D cell viability assay (Promega) to measure the viability of individual organoids, as previously described (Renner et al., [2020]). Briefly, the 96-well plates of AMOs and the reagents were brought to room temperature for 30 min. We adjusted the media volume of each well to 55 μl and added an equal volume (55 μl) of the CellTiter-Glo 3D reagent. Next, the samples were shaken on a Thermomixer (Eppendorf) at 900 rpm for 5 min and then incubated for 25 min at room temperature while protected from light. To minimize signal cross-talk between adjacent wells, we transferred the contents of the clear 96-well culture plates to white/opaque 384-well Lumitrac plates (Greiner) with two technical replicates (20 μl each) per sample, after the incubation. We recorded the luminescence immediately after the transfer using a Synergy Mx plate reader (BioTek). We outputted the results to Microsoft Excel for reformatting and then transferred them to GraphPad Prism v9.0.1 (Graphpad Software, Inc.) for plotting and statistical analysis.
To compare the toxic effects of compounds on AMOs and 2D-cultured midbrain dopaminergic neurons, we seeded and cultured both in parallel and generated them from the same smNPC starting cell population. For 2D dopaminergic neuron differentiation, smNPCs were seeded in 1% (v/v in KO-DMEM/F-12) Matrigel-coated 6-well plates and standard smNPC medium, following digestion by accutase as described above. From day 2 onwards, they were treated identically with the AMOs (i.e., they received the same media at the same timepoints). To work with the 2D dopaminergic neurons in a screening setting (and have the same plate format as the AMOs), we reseeded them to flat-bottom 96-well plates (“μCLEAR”, black, Greiner) at a density of 70,000 cells/well on day 48. On day 49, the medium of both 2D mDA neurons and 3D AMOs was exchanged to tox medium. The next day, we treated them with different concentrations (0.01, 0.1, 1, 10, 50, 100, 200, 500, and 1,000 μM; controls received the corresponding solvent at an amount equivalent to the highest compound concentration; n = 6 per concentration) of the compounds lindane (Sigma-Aldrich, in ethanol) and 6-hydroxydopamine hydrochloride (Sigma Aldrich, in DMSO) in tox medium. After 48 h of incubation, we measured the samples’ viability. For the AMOs, we used the CellTiter-Glo 3D cell viability assay as described above. We measured the 2D mDA neuron viability with the CellTiter-Glo 2.0 cell viability assay (Promega) according to the manufacturer’s instructions. In short, we brought the sample plates and reagents to room temperature for 30 min. We adjusted the media volume of the samples to 50 μl and added an equal volume (50 μl) of the CellTiter-Glo 2.0 reagent. We let the plate shake for 2 min at 900 rpm on a Thermomixer and then incubated them for 10 min at room temperature and protected from light. Immediately afterward, we measured the luminescence on a Synergy Mx plate reader. […]

[2] = tested on: 2D-cultured midbrain dopaminergic (mDA) neurons; test: Viability of 2D-cultured mDA neurons (CellTiter-Glo 2.0) in the 2D vs 3D comparison; assay type: cell-based; settings: Homo sapiens, Neuron, 2D mDA neurons, 48 h exposure from day 50
Procedure: To compare the toxic effects of compounds on AMOs and 2D-cultured midbrain dopaminergic neurons, we seeded and cultured both in parallel and generated them from the same smNPC starting cell population. For 2D dopaminergic neuron differentiation, smNPCs were seeded in 1% (v/v in KO-DMEM/F-12) Matrigel-coated 6-well plates and standard smNPC medium, following digestion by accutase as described above. From day 2 onwards, they were treated identically with the AMOs (i.e., they received the same media at the same timepoints). To work with the 2D dopaminergic neurons in a screening setting (and have the same plate format as the AMOs), we reseeded them to flat-bottom 96-well plates (“μCLEAR”, black, Greiner) at a density of 70,000 cells/well on day 48. On day 49, the medium of both 2D mDA neurons and 3D AMOs was exchanged to tox medium. The next day, we treated them with different concentrations (0.01, 0.1, 1, 10, 50, 100, 200, 500, and 1,000 μM; controls received the corresponding solvent at an amount equivalent to the highest compound concentration; n = 6 per concentration) of the compounds lindane (Sigma-Aldrich, in ethanol) and 6-hydroxydopamine hydrochloride (Sigma Aldrich, in DMSO) in tox medium. After 48 h of incubation, we measured the samples’ viability. For the AMOs, we used the CellTiter-Glo 3D cell viability assay as described above. We measured the 2D mDA neuron viability with the CellTiter-Glo 2.0 cell viability assay (Promega) according to the manufacturer’s instructions. In short, we brought the sample plates and reagents to room temperature for 30 min. We adjusted the media volume of the samples to 50 μl and added an equal volume (50 μl) of the CellTiter-Glo 2.0 reagent. We let the plate shake for 2 min at 900 rpm on a Thermomixer and then incubated them for 10 min at room temperature and protected from light. Immediately afterward, we measured the luminescence on a Synergy Mx plate reader. We outputted the results to Microsoft Excel and GraphPad Prism v9.0.1 for reformatting, plotting, and analysis. Data processing was performed as outlined for the CellTiter-Glo 3D-based viability assay above, except for the averaging of technical replicates, as measurements were performed directly in the culture plate without additional technical replicates.
All other data analysis steps including the statistical analysis to identify significant differences in toxicity between 2D and 3D (via multiple unpaired t-tests with the same parameters as above, corrected for using the Bonferroni-Dunn method, and considering padj <0.05 as significant), as well as dose-response curve fitting, were performed as described in detail above. The IC50 values were taken from the same regression/analysis as the dose-response curves.

[3] = tested on: automated midbrain organoids (AMOs); test: Dose-response analysis, ATP-based overall AMO viability; assay type: cell-based, human; settings: 48 h + 6 days; for viability: 0.01-1,000 μM (rotenone up to 100 μM), both AMO lines
Procedure: AMOs were cultured as described above for 47 days. On day 47, we exchanged their medium to tox medium (TM), initially without the addition of any compounds. […] For each compound, we included n = 8 controls per compound treated with the corresponding solvent at an amount equivalent to the highest compound concentration. To assess viability and cell type-specific toxicity in parallel and under the same conditions, we treated all samples with the compounds for 48 h, then exchanged their medium to standard culture medium without compounds and maintained them for an additional 6 days before analysis to allow breakdown and removal of cellular debris. Organoid viability and cell type-specific toxicity were analyzed as described for the primary screens. Here, we acquired five confocal planes spaced 36.6 μm apart in our Operetta high content imager. The image analysis of the AMOs for cell type-specific toxicity assessment required minor adjustments to account for the individual properties of the staining. […] For Map2, we performed Gaussian smoothing with a width of 10 px and omitted the additional sliding parabola filter. The other steps were performed as outlined for the primary cell-type-specific toxicity screen. […] In detail: The dose-response series, including the individual solvent controls, was performed for every compound on a separate 96-well plate of AMOs with initially n = 8 organoids per concentration. […] Data processing, including normalizations, was performed for each individual compound/plate as outlined above for the primary screens. Significant differences between the Map2 and TH content were also determined in GraphPad Prism as described for the primary screen and with the same parameters (multiple comparisons were performed for the different concentrations instead of compounds).

[4] = tested on: TH+ dopaminergic and Map2+ general neurons in AMOs; test: Dose-response analysis, TH and Map2 content by high content imaging; assay type: cell-based, human; settings: 48 h + 6 days; for Map2 content (general neurons) / TH content (dopaminergic neurons): 0.01-1,000 μM (rotenone up to 100 μM), both AMO lines; for TH levels compared to Map2 levels: dose-response, padj < 0.05
Procedure: All processing steps were conducted in an HTS-compatible automated liquid handling system (ALHS, a Biomek FXP liquid handling station). To quantify different cellular subpopulations within the AMOs, we employed our previously described (Renner et al., [2020], [2021b]) ALHS-compatible workflow for combined whole-mount staining and clearing, with minor modifications. We fixed the AMOs with 4% PFA (VWR) for 10–15 min and stained the entire aggregates with primary and secondary antibodies for 6 days each. The antibodies used in this study were as follows. Primary: mouse anti-Map2 (1:1,000, Merck Millipore, cat#: MAB3418) and rabbit anti-TH (1:500, Abcam, cat#: ab112). Secondary: donkey anti-mouse IgG, Alexa Fluor 488 conjugated (1:1,000, Thermo Fisher, cat#: A-21202) and donkey anti-rabbit IgG, Alexa Fluor 647 conjugated (1:1,000, Thermo Fisher, cat#: A-31573). The antibodies were diluted in blocking and permeabilization solution consisting of 6% BSA, 0.5% Triton-X 100 (Roth), 0.1% (w/v) sodium azide (Sigma-Aldrich) in PBS (Sigma-Aldrich) and immediately added after fixation following a triple rinse with PBS. We renewed the antibody solutions once after three days. As a nuclear counter stain, we added DAPI (1 μg/ml, Sigma-Aldrich) to the solution containing the secondary antibodies. Between primary and secondary antibody application and after finishing the secondary antibody incubation, we washed the samples overnight with 0.1% Triton X-100 in PBS, with a total of five exchanges of the washing solution. After the whole-mount staining, we performed BABB-based tissue clearing (Dent et al., [1989]) to allow image acquisition with single-cell resolution of the entire aggregates. For this purpose, we first dehydrated the AMOs via a stepwise methanol (Roth) series (25%, 50%, 70%, 90%, and 100%, each for 15 min). For clearing and imaging, we transferred them to organic solvent-resistant cyclo-olefin 96-well flat-bottom plates (“Screenstar”, Greiner Bio-One). Finally, we incubated the samples for 30 min in 1:1 (v/v) methanol/BABB (BABB consisted of benzyl alcohol (Sigma-Aldrich) and benzyl benzoate (Sigma-Aldrich) at a 1:1 (v/v) ratio) and then kept them in 100% BABB in the dark for storage and subsequent automated high content confocal fluorescent analysis.
We prepared and treated the AMOs with the compounds as described for the primary viability screen. On day 50, after 48 h of compound incubation, we replaced the medium with standard AMO medium and maintained the AMOs for 6 additional days under standard culture conditions. This additional time allows the cells killed by the compounds to be cleared from the aggregates. After the 6 days, we fixed the organoids with 4% PFA, whole-mount-stained them for TH and Map2, and tissue-cleared them as described above. To achieve uniform aggregate positioning within the wells before imaging, we tilted the plates off the horizontal plane at 60 degrees for a minimum of 5 min. We performed automated image acquisition of entire 96-well plates on an Operetta high content imager (Perkin Elmer) and analyzed images in the Harmony 4.1 software and/or Columbus version 2.6.0 as previously described (Renner et al., [2020]), with adjustments to account for the individual properties of the staining and samples. We acquired three medial planes for each organoid, spaced 36.6 μm apart to avoid double-sampling individual morphological features. For the analysis, we defined the organoid region in each image by summing all channels, removed small localized features with a median filter (10 px), and identified putative organoids/regions of interest (ROIs) with the “find image region” function. To identify bona fide AMOs and exclude image artifacts and dust, we selected the ROIs with an area >9,000 μm^2, roundness >0.4, and mean DAPI intensity >190 arbitrary brightness units (abu).

[5] = tested on: TH+ dopaminergic and Map2+ general neurons in AMOs; test: Primary cell-type-specific toxicity screen (whole-mount TH/Map2 staining, high content imaging); assay type: cell-based, human; settings: approx. 100 μM, 48 h + 6 days, shared between both AMO lines, padj < 0.05
Procedure: All processing steps were conducted in an HTS-compatible automated liquid handling system (ALHS, a Biomek FXP liquid handling station). To quantify different cellular subpopulations within the AMOs, we employed our previously described (Renner et al., [2020], [2021b]) ALHS-compatible workflow for combined whole-mount staining and clearing, with minor modifications. We fixed the AMOs with 4% PFA (VWR) for 10–15 min and stained the entire aggregates with primary and secondary antibodies for 6 days each. The antibodies used in this study were as follows. Primary: mouse anti-Map2 (1:1,000, Merck Millipore, cat#: MAB3418) and rabbit anti-TH (1:500, Abcam, cat#: ab112). Secondary: donkey anti-mouse IgG, Alexa Fluor 488 conjugated (1:1,000, Thermo Fisher, cat#: A-21202) and donkey anti-rabbit IgG, Alexa Fluor 647 conjugated (1:1,000, Thermo Fisher, cat#: A-31573). The antibodies were diluted in blocking and permeabilization solution consisting of 6% BSA, 0.5% Triton-X 100 (Roth), 0.1% (w/v) sodium azide (Sigma-Aldrich) in PBS (Sigma-Aldrich) and immediately added after fixation following a triple rinse with PBS. We renewed the antibody solutions once after three days. As a nuclear counter stain, we added DAPI (1 μg/ml, Sigma-Aldrich) to the solution containing the secondary antibodies. Between primary and secondary antibody application and after finishing the secondary antibody incubation, we washed the samples overnight with 0.1% Triton X-100 in PBS, with a total of five exchanges of the washing solution. […]
We prepared and treated the AMOs with the compounds as described for the primary viability screen. […] We performed automated image acquisition of entire 96-well plates on an Operetta high content imager (Perkin Elmer) and analyzed images in the Harmony 4.1 software and/or Columbus version 2.6.0 as previously described (Renner et al., [2020]), with adjustments to account for the individual properties of the staining and samples. […]

[6] = tested on: automated midbrain organoids (AMOs); test: Primary organoid viability screen (ATP-based CellTiter-Glo 3D); assay type: cell-based, human; settings: approx. 100 μM, 48 or 96 h, two AMO lines
Procedure: We cultured AMOs for 47 days in our automated system as described above. On day 47, we exchanged the organoid medium to a minimal tox medium (TM, consisting of DMEM/F-12 with 1% N2 supplement and 1% penicillin/streptomycin/glutamine) to reduce possible interference from antioxidants in the B27 media supplement. The next day, we treated the AMOs with the compounds from the library at a concentration of 100 μM in TM with some deviations due to solubility (see Supplementary Table 1 for a complete list of compounds including their final concentrations in the screen). DMSO control samples contained 0.5% (v/v) DMSO, which is equivalent to the amount of solvent in the samples that received compound treatment. After 48 h of incubation with the compounds, we either directly processed the organoids for the 48-h time point or renewed the compounds in TM once to achieve 96 h of incubation. […] We recorded the luminescence immediately after the transfer using a Synergy Mx plate reader (BioTek). […]
In detail: All compounds including their controls were arrayed on a single 96-well plate (see Supplementary Table 1 for well positions), and replicated across three plates for a total of n = 3 replicates per condition (except AMO line 2 at 48 h n = 2). […] During our analysis, we first averaged the two technical replicates from the luminescence measurement in Microsoft Excel, yielding one averaged luminescence value for each well of the original 96-well AMO plates. Then, we normalized the luminescence detected in each well to the mean luminescence of the four DMSO controls of the same plate to get a relative organoid viability value. Normalization was performed separately for each plate to account for and correct for potential differences during the luminescence measurements. […] We further assessed the homogeneity of the AMOs by calculating the coefficient of variation (CV) for the relative viabilities of the DMSO controls (i.e., we divided the standard deviations by the corresponding means and averaged the resulting CV values for the DMSO controls). […]

## Cl.NCCc1cc(O)c(O)cc1O [6OHDA, 6-hydroxydopamine hydrochloride, reference compound]
[1]; AMO line 1, 3D
  IC50: 315 µM
[1]; AMO line 2, 3D
  IC50: 269 µM
[1]; both cell lines, 48 h, 0.01-1,000 μM, padj < 0.05
  toxicity in 3D AMOs compared with 2D-cultured dopaminergic neurons: significantly stronger toxic effect in 2D than 3D
[2]; AMO line 1 cell line
  IC50: 44.2 µM
[2]; AMO line 2 cell line
  IC50: 65 µM

## CC(=O)Oc1ccccc1C(=O)O [ASS, acetylsalicylic acid, reference compound]
[3]; 0.01-1,000 μM, viability, Map2 and TH readouts
  overall toxicity in the dose-response experiments: no significant changes at any of the tested concentrations; also recorded: non-toxic across all tested concentrations
[4]
  Map2 content (general neurons): no impact
  TH content (dopaminergic neurons): no impact

## COc1ccc2cc3[n+](cc2c1OC)CCc1cc2c(cc1-3)OCO2 [BC, berberine chloride]
[3]
  viability: strongly reduced
[5]
  significant difference in reduction between TH and Map2 (dopaminergic neuron-specific toxicity): statistically significant difference in reduction between TH and Map2
[4]
  Map2 content (general neurons): strongly reduced
  TH content (dopaminergic neurons): strongly reduced
  TH levels compared to Map2 levels: significantly reduced TH levels compared to Map2 over a broad range of concentrations

## Oc1c(Cl)cc(Cl)c(Cl)c1Cc1c(O)c(Cl)cc(Cl)c1Cl [HCP, hexachlorophene]
[3]
  viability: strongly reduced
[6]
  toxicity in the primary screens: highly toxic
[4]
  Map2 content (general neurons): strongly reduced
  TH content (dopaminergic neurons): strongly reduced

## CC(C)(c1cc(Br)c(O)c(Br)c1)c1cc(Br)c(O)c(Br)c1 [TBBPA, 3,3′,5,5′-tetrabromobisphenol A]
[3]
  viability: strongly reduced
[5]
  significant difference in reduction between TH and Map2 (dopaminergic neuron-specific toxicity): statistically significant difference in reduction between TH and Map2
[4]
  Map2 content (general neurons): strongly reduced
  TH content (dopaminergic neurons): strongly reduced
  TH levels compared to Map2 levels: significantly reduced TH levels compared to Map2 over a broad range of concentrations

## [CH3][Hg][Cl] [methyl mercuric (II) chloride]
[5]
  significant difference in reduction between TH and Map2 (dopaminergic neuron-specific toxicity): statistically significant difference in reduction between TH and Map2

## C=C(C)[C@H]1Cc2c(ccc3c2O[C@@H]2COc4cc(OC)c(OC)cc4[C@@H]2C3=O)O1 [rotenone, reference compound]
[4]
  TH levels compared to Map2 levels: significantly reduced TH levels compared to Map2 over a broad range of concentrations
